Data taken from publication PMC4937837 (Journal of Medicinal Chemistry, 2015).

Conditions: mouse liver microsomes, NADPH, 1 μM compound, 1 h incubation

O=C(NCCCCN1CCN(c2cccc3ccccc23)CC1)c1cnc2ccccc2c1 [Compound 32, N-(4-(4-(Naphthalen-1-yl)piperazin-1-yl)butyl)quinoline-3-carboxamide]
in vitro rate constant (k): −0.017
